Measured values taken from patent US10442793B2, “Oxa spiro derivative, preparation method therefor, and applications thereof in medicines” (Jiangsu Hengrui Medicine Co., Ltd., priority 2015, dated 2019).

Columns and labels:
Assay type in all cases: cell-based
KOR receptor = biological target: T1, KOR receptor (Homo sapiens, UniProt P41145); test: KOR activity test: HEK293/KOR/CRE luciferase reporter, cAMP levels; conditions: for Emax: HEK293, maximum effect of morphine is 100%
T1 construct: expressed in transfected cells; host or cells: HEK293
T1 sequence (P41145 whole entry): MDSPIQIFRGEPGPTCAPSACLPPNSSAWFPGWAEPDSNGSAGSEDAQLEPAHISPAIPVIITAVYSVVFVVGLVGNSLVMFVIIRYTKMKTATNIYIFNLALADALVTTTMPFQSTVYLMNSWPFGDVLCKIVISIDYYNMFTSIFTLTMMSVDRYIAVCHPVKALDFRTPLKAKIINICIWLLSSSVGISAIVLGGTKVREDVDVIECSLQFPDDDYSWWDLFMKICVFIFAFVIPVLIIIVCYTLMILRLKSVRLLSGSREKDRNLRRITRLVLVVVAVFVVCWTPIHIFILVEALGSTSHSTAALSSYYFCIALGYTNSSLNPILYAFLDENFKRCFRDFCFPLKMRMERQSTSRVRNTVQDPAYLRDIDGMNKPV
Procedure: (§1) The experiment objective is to determine the activity of the compounds of the present invention on agonizing KOR receptor and DOR receptor, and affecting downstream cAMP levels.
(§2) 90 μl of HEK293/KOR/CRE or HEK293/DOR/CRE (CRE cDNA purchased from Promega, product number E8471, KOR cDNA and DOR cDNA were constructed by our company) cells were inoculated in a 96-well plate with a density of 1×10^4 cells/well. Then, the cells were incubated overnight at 37° C., in 5% CO2. The drug was prepared as a 20 mM stock solution that was later diluted with 100% DMSO to a 200×concentration gradient, and then diluted with a 20-fold DMEM/high glucose (SH30243.01B, Hyclone) medium. The cell culture plate inoculated on the first day was taken out, and […] of the diluted drug or control (0.5% DMSO) was added to each well. The plate was gently shaken and placed in a incubator at 37° C., 5% CO2 for 4 hours. Finally, 100 μl of a detection reagent ONE-Glo (E6120, Promega) was added to each well, and the plate was placed at room temperature for 5 minutes. The absorbance value was measured by the cold light model of a microplate reader (PE, Victor3). The EC50 value of the compound was calculated by Graphpad Prism software according to each concentration of the compound and the corresponding signal value. Emax is the maximum effect of the compound on cAMP level changes.
(§3) The activity of the compounds of the present invention on agonizing KOR receptor or DOR receptor and affecting downstream cAMP levels was determined by the above test, and the EC50 values are shown in Table 1.2.

hERG potassium channel = biological target: T2, hERG potassium channel (Homo sapiens, UniProt Q12809); test: Blocking of hERG potassium current, automatic patch clamp on HEK293-hERG cells
T2 construct: expressed in transfected cells; host or cells: HEK293
T2 sequence (Q12809 whole entry): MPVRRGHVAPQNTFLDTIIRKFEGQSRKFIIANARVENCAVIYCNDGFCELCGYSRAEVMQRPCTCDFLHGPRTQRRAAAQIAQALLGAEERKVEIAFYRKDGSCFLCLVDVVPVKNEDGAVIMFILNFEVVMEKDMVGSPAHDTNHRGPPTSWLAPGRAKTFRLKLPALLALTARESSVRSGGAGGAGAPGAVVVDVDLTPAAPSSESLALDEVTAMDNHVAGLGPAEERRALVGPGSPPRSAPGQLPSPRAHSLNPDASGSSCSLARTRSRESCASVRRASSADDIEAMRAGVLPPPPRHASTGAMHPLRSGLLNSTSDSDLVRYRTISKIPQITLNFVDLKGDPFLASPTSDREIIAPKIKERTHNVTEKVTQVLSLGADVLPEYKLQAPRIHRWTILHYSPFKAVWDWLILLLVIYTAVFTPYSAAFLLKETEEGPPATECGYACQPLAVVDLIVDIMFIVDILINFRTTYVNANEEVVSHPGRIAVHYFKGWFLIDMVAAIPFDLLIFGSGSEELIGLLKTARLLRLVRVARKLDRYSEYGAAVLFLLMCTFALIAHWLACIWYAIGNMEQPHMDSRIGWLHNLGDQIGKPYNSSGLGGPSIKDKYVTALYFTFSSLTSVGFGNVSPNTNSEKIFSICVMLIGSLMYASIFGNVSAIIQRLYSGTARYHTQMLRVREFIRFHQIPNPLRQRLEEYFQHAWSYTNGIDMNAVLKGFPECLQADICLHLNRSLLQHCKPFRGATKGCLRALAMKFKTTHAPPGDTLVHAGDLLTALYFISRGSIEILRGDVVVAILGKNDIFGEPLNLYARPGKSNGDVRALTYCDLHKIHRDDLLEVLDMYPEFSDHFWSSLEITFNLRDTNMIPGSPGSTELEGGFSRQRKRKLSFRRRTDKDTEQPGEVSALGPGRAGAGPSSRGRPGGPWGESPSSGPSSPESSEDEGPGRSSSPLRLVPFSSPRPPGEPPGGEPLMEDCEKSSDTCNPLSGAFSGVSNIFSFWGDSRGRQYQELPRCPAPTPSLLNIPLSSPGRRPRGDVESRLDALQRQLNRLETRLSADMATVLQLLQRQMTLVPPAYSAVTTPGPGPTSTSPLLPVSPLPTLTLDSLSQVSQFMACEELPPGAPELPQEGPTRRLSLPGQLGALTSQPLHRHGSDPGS
Procedure: The blocking effect of the compounds of the present invention and the positive compound TRV-130 (Journal of Pharmacology and Experimental Therapeutics, Volume 344, Issue 3, Pages 708-717, 2013) on hERG potassium current was tested on a stable cell line transfected with hERG potassium channel using an automatic patch clamp.
HEK293-hERG stabilized cells were subcultured at a density of 1:4 in a MEM/EBSS medium (10% FBS, 400 μg/ml G418, 1% MEM nonessential amino acid solution (100×), 1% sodium pyruvate solution) for 48-72 hours, then the automatic patch clamp experiment was performed. The cells were digested with 0.25% trypsin on the day of the experiment, then the cells were collected by centrifugation and resuspended with extracellular fluid (140 mM NaCl, 4 mM KCl, 1 mM MgCl2, 2 mM CaCl2, 5 mM D-glucose monohydrate, 10 mM Hepes, pH 7.4, 298 mOsmol) into a cell suspension. The cell suspension was placed on the cell bank of the Patchliner instrument, and the cells were added to the chip (NPC-16) by the negative pressure controller of the Patchliner instrument, with negative pressure attracting individual cells to the small hole of the chip. After the whole cell model was formed, the instrument generated the hERG current according to the preset hERG current and voltage program, and then the instrument perfused the compound from low concentration to high concentration automatically. HEAK Patchmaster, HEAK EPC10 patch clamp amplifier (Nanion), Pathliner software, and a data analysis software provided by Pathcontrol HTsoftware were used to analyze the current of the compounds at different concentrations and the current of the blank control.
The blocking effect of the compounds of the present invention on hERG potassium current was determined by the above test, and the IC50 values are shown in Table 3.

MOR receptor = biological target: T3, MOR receptor (Homo sapiens, UniProt P35372); test: Activation of the β-arrestin signaling pathway of MOR receptor (CHO-K1 OPRM1 β-Arrestin cells, DiscoveRX); conditions: for Emax: maximum effect of morphine is 100%
T3 construct: host or cells: CHO-K1
T3 sequence (P35372 whole entry): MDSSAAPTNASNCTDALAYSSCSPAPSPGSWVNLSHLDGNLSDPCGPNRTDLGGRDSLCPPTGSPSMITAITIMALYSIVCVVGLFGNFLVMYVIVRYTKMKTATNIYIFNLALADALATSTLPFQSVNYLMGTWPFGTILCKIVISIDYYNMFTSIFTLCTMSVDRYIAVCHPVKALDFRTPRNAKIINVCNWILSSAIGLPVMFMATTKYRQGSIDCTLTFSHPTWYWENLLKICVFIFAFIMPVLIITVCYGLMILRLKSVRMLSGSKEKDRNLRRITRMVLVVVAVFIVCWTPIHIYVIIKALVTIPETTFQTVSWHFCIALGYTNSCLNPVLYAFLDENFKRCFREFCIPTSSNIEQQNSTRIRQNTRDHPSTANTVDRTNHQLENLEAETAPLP
Procedure: The experiment objective is to determine the activity of the compounds of the present invention on activating the β-arrestin signaling pathway of MOR receptor.
The drug was prepared as a 20 mM stock solution that was later diluted with 100% DMSO to a 200×concentration gradient, and then diluted with a 20-fold AssayComplete™ Cell Plating 2 Reagent (93-0563R2B, DiscoveRX) medium. The cell culture plate inoculated on the first day was taken out, and 10 μl of the diluted drug or control (0.5% DMSO) was added to each well. The plate was gently shaken and placed in an incubator at 37° C., 5% CO2 for 90 minutes. Finally, 50 μL of a detection reagent (93-0001, DiscoveRX) were added to each well, and the plate was placed at room temperature for 60 minutes. The absorbance values were measured by the cold light model of a microplate reader (PE, Victor3). The EC50 values of the compounds were calculated by Graphpad Prism software according to each concentration of the compound and the corresponding signal value.

μ-opioid receptors (MOR) = biological target: T4, μ-opioid receptors (MOR) (Homo sapiens, UniProt P35372); test: MOR activity test: HEK293/MOR/CRE luciferase reporter, agonizing MOR and affecting downstream cAMP levels; conditions: for Emax: HEK293, maximum effect of TRV-130 is 100%, read-out: Emax on agonizing MOR receptor and affecting cAMP levels
T4 construct: host or cells: HEK293
T4 sequence (P35372 whole entry): as above
From the text: The compounds of the present invention can activate μ-opioid receptors (MOR). Activated MOR can regulate intracellular cAMP levels, and cAMP enters the nucleus and binds to the CRE region of the reporter gene luciferase, thereby initiating the expression of the reporter gene. Luciferase can react with its substrate to emit fluorescence, and the measured fluorescence signals reflect the agonistic activity of the compounds.
The activity of the test example compounds on agonizing MOR and affecting downstream cAMP levels was tested by the following method.
MOR/pcDNA3.1 (+) and CRE/pGL4.29 were transferred into HEK293 cells. G418 and hygromycin were added into the culture medium, and HEK293/MOR/CRE monoclonal cell lines were screened in a 96-well cell culture plate.
HEK293/MOR/CRE monoclonal cells were cultured in a DMEM/high glucose medium (10% FBS, 1 mg/ml G418, 200 μg/ml hygromycin, mixed uniformly), and passaged every 3 days. On the day of the experiment, a cell suspension was prepared with a fresh cell medium, added to a 96 well plate (BD, #356692) with 20,000 cells/well, and incubated in 5% CO2 at 37° C. On the second day, the compound was dissolved in pure DMSO at a concentration of 20 mM, then formulated with DMSO to a first concentration of 4 mM and diluted in 10 fold concentration gradient to 6 concentrations. Then, 90 μl of DMSO was added to blank and control wells. Then, formulated compound was prepared by adding 2.5 μl of the compound solutions formulated in DMSO at a gradient concentration to 97.5 μl of a fresh cell culture medium containing 5 μM foscolin. Then, 10 μl of the formulated compound was added to the cell culture plate to make the final concentration of the compound 10000, 1000, 100, 10, 1, 0.1, or 0.01 nM, and the plate was incubated at 37° C., in 5% CO2 for 5 hours. In a 96-well cell culture plate, 100 μl of luciferase assay solution (Promega, # E6110) was added to each well. The plate was placed in the dark at room temperature for 10-15 minutes, blowed and aspirated 10 times, and 100 μl were pipetted to a 96 well white plate. The chemiluminescence signal values were read in a microplate reader (PE, Victor3), and the read data was processed using software.
The activity of the compounds of the present invention on agonizing MOR and affecting downstream cAMP levels was determined by the above test, and the EC50 values are shown in Table 1.1.

DOR receptor = biological target: T5, DOR receptor (Homo sapiens, UniProt P41143); test: DOR activity test: HEK293/DOR/CRE luciferase reporter, cAMP levels; conditions: for Emax: HEK293, maximum effect of morphine is 100%
T5 construct: expressed in transfected cells; host or cells: HEK293
T5 sequence (P41143 whole entry): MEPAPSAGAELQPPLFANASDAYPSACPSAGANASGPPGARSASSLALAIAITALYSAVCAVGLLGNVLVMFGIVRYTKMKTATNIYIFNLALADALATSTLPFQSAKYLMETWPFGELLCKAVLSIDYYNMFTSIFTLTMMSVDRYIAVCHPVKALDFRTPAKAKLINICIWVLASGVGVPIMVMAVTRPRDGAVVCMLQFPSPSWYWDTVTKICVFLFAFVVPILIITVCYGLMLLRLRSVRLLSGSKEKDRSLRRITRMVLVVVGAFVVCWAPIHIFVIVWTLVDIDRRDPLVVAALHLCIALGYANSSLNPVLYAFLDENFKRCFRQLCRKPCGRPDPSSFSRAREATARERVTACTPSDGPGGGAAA
Procedure: as §1, §2, §3

SMILES	EC50 (KOR receptor)	Emax (KOR receptor)	IC50 (hERG potassium channel)	EC50 (MOR receptor)	Emax (MOR receptor)	EC50 (μ-opioid receptors (MOR))	Emax (μ-opioid receptors (MOR))	EC50 (DOR receptor)	Emax (DOR receptor)
CCO[C@H]1CC[C@H](NCC[C@@]2(c3ccccn3)CCOC3(CCCC3)C2)c2ccccc21 [Example 19, (1S,4S)-4-ethoxy-N-(2-((R)-9-(pyridin-2-yl)-6-oxaspiro[4.5]decan-9-yl)ethyl)-1,2,3,4-tetrahydronaphthalen-1-amine]	862 nM	96%	5900 nM	24 nM	13%	2 nM	98%	552 nM	108%
O=C1CC[C@H](NCC[C@@]2(c3ccccn3)CCOC3(CCCC3)C2)c2ccccc21 [Example 11, (S)-4-((2-((R)-9-(pyridin-2-yl)-6-oxaspiro[4.5]decan-9-yl)ethyl)amino)-3,4-dihydronaphthalen-1(2H)-one]	277 nM	98%	4100 nM	305 nM	37%	17 nM	112%	1920 nM	80%
